# Results as given in US20090253634A1, “Methods and Compositions for the Treatment of Gastrointestinal Disorders” (MICROBIA, INC., priority 2005, published 2009).
# Bridge positions count the residues as written; N and C are the ends. Peptide text beside a SMILES is read from it.
# Assays:
# intestinal secretion = test: suckling mouse model of intestinal secretion (SuMi assay); assay type: in vivo, suckling mice; conditions: dose response; wild-type ST purchased from TDT; FIG. 5a, 5b
# Protocol: In this model a test compound is administered to suckling mice that are between 7 and 9 days old. After the mice are sacrificed, the gastrointestinal tract from the stomach to the cecum is dissected (“guts”). The remains (“carcass”) as well as the guts are weighed and the ratio of guts to carcass weight is calculated. If the ratio is above 0.09, one can conclude that the test compound increases intestinal secretion. […] The effect of Zelnorm® was also studied.
# [1] = stability in simulated gastric fluid (SGF); assay type: in vitro ADME; conditions: pH 1, 37° C., up to 3 h
# Protocol: All samples were analyzed by LC/MS
# The reference control sample was diluted 10-fold (1000 μL volume) in distilled water for a final concentration of 10 μM and chilled on ice. At each time point, samples were diluted 10-fold (1000 μL volume) in distilled water for an expected concentration of 10 μM, and chilled on ice, until analysis.
# [2] = tested on: response to colorectal distension; test: partial restraint stress-induced hyperalgesia model; assay type: in vivo, Wistar rats; conditions: oral 0.3 and 3.0 μg/kg; distending pressure 15 mm Hg; p<0.0001
# Protocol: Five groups of female Wistar rats (weighing 200-250 g each), were surgically prepared for electromyography as described (Morteau et al. 1994 Dig Dis Sci 39:1239-48) and were used to evaluate the effects of SEQ ID NO:3 on colorectal sensitivity and compliance after a 2 hour partial restraint stress session. Partial restraint stress (PRS), a relatively mild stress, was induced as previously described (Morteau et al., 1994 Dig Dis Sci 39:1239-48). Female rats were lightly anesthetized with diethyl ether and their shoulders, upper forelimbs and thoracic trunk were wrapped in a confining harness of paper tape to restrict, but not prevent body movements. Control sham-stress animals were anesthitized but not wrapped. […] Electrical activity was recorded with an electroencephalograph (Mini VIII, Alvar, Paris, France) using a short time constant (0.03 sec.) to remove low-frequency signals (<3 Hz) and a paper speed of 3.6 cm/minute. […] Colonic pressure and balloon volume were continuously monitored on a potentiometric recorder (L6514, Linseis, Selb, Germany) with a paper speed of 1.0 cm/minute. The number of spike bursts, corresponding to abdominal contractions, was evaluated per 5-minute period. Colorectal volumes were determined as the maximal volume obtained for each stage of distension using the potentiometric recorder. […] The values were expressed as mean±SEM.
# [3] = tested on: abdominal response to colorectal distension; test: TNBS visceral hypersensitivity rat model (colorectal distension, EMG); assay type: in vivo, Wistar rats; conditions: 0.3 μg/kg and 3 μg/kg; given one hour before CRD
# Protocol: Male Wistar rats (220-250 g) were premedicated with 0.5 mg/kg of acepromazine injected intraperitoneally (IP) and anesthetized by intramuscular administration of 100 mg/kg of ketamine. Pairs of nichrome wire electrodes (60 cm in length and 80 μm in diameter) were implanted in the striated muscle of the abdomen, 2 cm laterally from the white line. The free ends of electrodes were exteriorized on the back of the neck and protected by a plastic tube attached to the skin. Electromyographic (EMG) recordings were started 5 days after surgery. Electrical activity of abdominal striated muscle was recorded with an electroencephalograph machine (Mini VIII, Alvar, Paris, France) using a short time constant (0.03 sec.) to remove low-frequency signals (<3 Hz).
# Ten days post surgical implantation, trinitrobenzenesulphonic acid ([…]) was administered to induce rectal inflammation. TNBS (80 mg kg^−1 in 0.3 ml 50% ethanol) was administered intrarectally through a silicone rubber catheter introduced at 3 cm from the anus under light diethyl-ether anesthesia, as described (Morteau et al. 1994 Dig Dis Sci 39:1239). […] Evaluation of rectal sensitivity, as measured by EMG, was performed before (1-2 days) and 3 days following rectal instillation of TNBS.
# The number of spike bursts that corresponds to abdominal contractions was determined per 5 min periods. […]
smiles,measurement,setting,value
"C[C@@H]1NC(=O)[C@@H]2CCCN2C(=O)[C@H](CC(N)=O)NC(=O)[C@@H]2CSSC[C@H](N)C(=O)N[C@H]3CSSC[C@H](NC1=O)C(=O)N[C@@H]([C@@H](C)O)C(=O)NCC(=O)N[C@H](C(=O)N[C@@H](Cc1ccc(O)cc1)C(=O)O)CSSC[C@H](NC(=O)[C@H](Cc1ccc(O)cc1)NC(=O)[C@H](CCC(=O)O)NC3=O)C(=O)N2 [SEQ ID NO:3] (H-CCEYCCNPACTGCY-OH; disulfide 1-6, 2-10, 5-13; N-terminus and C-terminus assumed)",intestinal secretion (guts to carcass weight ratio),intestinal secretion,increase intestinal secretion
same,Cleavage of SEQ ID NO: 3 by proteolytic substance,[1],not detectable
same,response to CRD after partial restraint stress,[2],reduced the response to CRD
same,abdominal response to colorectal distension after TNBS,[3],Significant decreases in abdominal response
